US20030055065A1, “Tricyclic amide and urea compounds useful for inhibition of G-protein function and for treatment of proliferative diseases” (priority 1993, published 2003)
pIC50: −log10 of the molar value. Several values for one entry are separate records, joined by “and”; a condition that tells them apart may be missing. Equal values may be shown once. Read-outs that look alike come from different tables or passages of the source.

Tests used:
[1] = test system: Ras-CVLS processing in COS monkey kidney cells; assay: COS cell assay: Ras-CVLS processing (Western blot); format: cell-based; settings: COS cells, read-out: Inhibition of Ras Processing IC50
Method: 2. […] Effect of farnesyl protein transferase inhibitors on Ras processing and on disordered cell growth induced by transforming Ras. COS monkey kidney cells were transfected by electroporation with the plasmid pSV-SPORT (Gibco/BRL) containing a cDNA insert encoding either Ras-CVLS or Ras-CVLL, leading to transient overexpression of a Ras substrate for either farnesyl protein transferase or geranylgeranyl protein transferase I, respectively (see above). […] After 24 hours, media was removed and fresh media containing the appropriate drugs was re-added. 48 hours after electroporation cells were examined under the microscope to monitor disordered cell growth induced by transforming Ras. Cells expressing transforming Ras become more rounded and refractile and overgrow the monolayer, reminiscent of the transformed phenotype. […] Cells were lysed by homogenization and cell debris was removed by centrifugation at 2000×g for 10 min. Cellular protein was precipitated by addition of ice-cold trichloroacetic acid and redissolved in 100 μl of SDS-electrophoresis sample buffer. […] Proteins resolved on the gels were electroblotted onto nitrocellulose membranes for immunodetection. […] E., et al., (1982), Monoclonal antibodies to the p21 products of the transforming gene of Harvey murine sarcome virus and of the cellular ras gene family, J. Virol. 43: 294-304), in PBS containing 1% fetal calf serum for one hour at room temperature. After washing, membranes were incubated for one hour at room temperature with a 1:5000 dilution of secondary antibody, rabbit anti-rat IgG conjugated to horseradish peroxidase, in PBS containing 1% fetal calf serum.

[2] = target: T1, farnesyl protein transferase (FPT), partially purified from rat brain (Rattus norvegicus, UniProt Q02293+Q04631); assay: Inhibition of farnesyl protein transferase (transfer of [3H]farnesyl to Ras-CVLS); format: biochemical
T1 construct: were partially purified from rat brain by ammonium sulfate fractionation followed by Q-Sepharose
Procedure, shortened: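 Partially purified farnesyl protein transferase with His6-tagged val12-Ha-Ras-CVLS substrate and [3H]farnesyl pyrophosphate, 30 min at room temperature. Stopped with SDS/TCA, precipitated Ras collected on GF/C filters; percent inhibition relative to DMSO vehicle control.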

[3] = test system: Normal human HEPM fibroblasts; assay: Cell Mat Assay: density of mat cells (mIC50); format: cell-based
Method: (§1) Compound-induced colony inhibition was assayed by addition of serial dilutions of compound directly to the growth medium 24 h after tumor cell planting, and incubating cells for an additional 14 d to allow colony formation. Assays were terminated by rinsing monolayers twice with phosphate-buffered saline (PBS), fixing the monolayers with a 1% glutaraldehyde solution in PBS, then visualizing tumor cells by staining with X-Gal (Price, J., et al., Lineage analysis in the vertebrate nervous system by retrovirus-mediated gene transfer, Proc. Natl. Acad. Sci.84, 156-160(1987)). […] Both IC50 values were obtained by determining the density of tumor cells and mat cells by visual inspection and enumeration of cells per colony and the number of colonies under the microscope.

[4] = test system: T24-BAG4 human bladder carcinoma cells expressing an activated H-ras gene; assay: Cell Mat Assay: tumor cell colony inhibition (tIC50); format: cell-based; settings: Homo sapiens, inhibition of tumor cell growth
Method: as §1

[5] = enzyme inhibition, read-out: FPT IC50
[6] = Ras-CVLS farnesylation, partially purified rat brain FPT, read-out: FPT IC50
[7] = FPT IC50, Ras-CVLS farnesylation, partially purified rat brain FPT

T1 sequence (Q02293 whole entry, one chain of several): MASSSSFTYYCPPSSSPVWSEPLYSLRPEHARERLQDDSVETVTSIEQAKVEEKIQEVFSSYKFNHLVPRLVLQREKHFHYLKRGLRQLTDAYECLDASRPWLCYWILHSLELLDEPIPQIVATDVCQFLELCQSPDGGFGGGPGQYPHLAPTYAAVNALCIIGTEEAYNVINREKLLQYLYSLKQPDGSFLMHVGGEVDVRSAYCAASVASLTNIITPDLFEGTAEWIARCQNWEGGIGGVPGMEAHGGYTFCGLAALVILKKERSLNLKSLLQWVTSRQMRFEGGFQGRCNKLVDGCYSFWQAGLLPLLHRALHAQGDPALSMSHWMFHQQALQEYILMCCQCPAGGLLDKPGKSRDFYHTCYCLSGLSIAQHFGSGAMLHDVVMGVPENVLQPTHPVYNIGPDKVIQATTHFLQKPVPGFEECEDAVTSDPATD

pIC50 [2, 6] | pIC50 [4] | SMILES | pIC50 ([3]; Homo sapiens, Fibroblast) | also measured
– | – | O=C(C1CCCC1)N1CCC(=C2c3ccc(Cl)cc3CCc3cccnc32)CC1 [Example 157] | – | pIC50 ([1]; Primates, COS): 5.35
– | – | Cc1ccc2c(c1)CCc1cccnc1C2=C1CCN(C(=O)Cc2ccncc2)CC1 [Example 434] | – | FPT inhibition at the concentration in parentheses ([2]; (0.48) μM): 70 (0.48); pIC50 [2, 5]: 6.59; pIC50 ([1]; Primates, COS): > 5.30
5.70 | – | O=C(CN1C(=O)c2ccccc2S1(=O)=O)N1CCC(=C2c3ccc(Cl)cc3CCc3cccnc32)CC1 [Example 85] | – | pIC50 ([1]; Primates, COS): < 4.43
5.62 | – | O=C(C(=O)N1CCC(=C2c3ccc(Cl)cc3CCc3cccnc32)CC1)c1ccc([N+](=O)[O-])cc1 [Example 295] | – | pIC50 ([1]; Primates, COS): 4.68
5.52 | 4.60 | O=C(Cc1ccc(O)cc1)N1CCC(=C2c3ccc(Cl)cc3CCc3cccnc32)CC1 [Example 128] | < 4.30 | –
6.06 | – | CC(C)(C(=O)N1CCC(=C2c3ccc(Cl)cc3C=Cc3cccnc32)CC1)c1cccnc1 [Example 278] | – | pIC50 ([1]; Primates, COS): 5.59
5.00 | 4.43 | O=C(CCc1ccc(O)cc1)NCC(=O)N1CCN(C2c3ccc(Cl)cc3CCc3cccnc32)CC1 (stereo not shown) [Example 218] | 4.30 | –
5.85 | 4.30 | S=C(c1ccccc1)N1CCC(=C2c3ccc(Cl)cc3CCc3cccnc32)CC1 [Example 121] | < 4.30 | –
5.88 | – | O=C(Nc1cccnc1)N1CCC(C2c3ccc(Cl)cc3C=Cc3cccnc32)CC1 (stereo not shown) [Example 267] | – | pIC50 ([1]; Primates, COS): 4.90
– | < 4.60 | CC(C)(C(=O)N1CCC(=C2c3ccc(Cl)cc3CCc3cccnc32)CC1)c1cc[n+]([O-])cc1 [Example 411-E] | < 4.60 | pIC50 [2, 5]: 5.94
5.39 | 4.43 | O=C(NCc1ccccc1)N1CCC(C2c3ccc(Cl)cc3CCc3cccnc32)CC1 (stereo not shown) [Example 318] | 4.43 | –
– | 4.90 | Nc1cc2c(nc1Br)C(=C1CCN(C(=O)Cc3ccncc3)CC1)c1ccc(Cl)cc1CC2 [Example 405] | < 4.60 | pIC50 [2, 5]: 5.89
5.41 | 4.30 | CS(=O)(=O)Nc1ccc(C(=O)N2CCC(=C3c4ccc(Cl)cc4CCc4cccnc43)CC2)cc1 [Example 91] | 4.10 | –
5.47 | 4.30 | NS(=O)(=O)c1ccc(C(=O)N2CCC(=C3c4ccc(Cl)cc4CCc4cccnc43)CC2)cc1 [Example 90] | < 4.30 | –
5.37 | 4.30 | O=C(CSc1ncccn1)N1CCC(=C2c3ccc(Cl)cc3CCc3cccnc32)CC1 [Example 12] | < 4.30 | –
5.89 | – | O=C(Nc1cccnc1)N1CCC(=C2c3ccc(Cl)cc3CCc3c(Cl)ccnc32)CC1 [Example 261] | – | pIC50 ([1]; Primates, COS): 5.04
5.10 | 4.60 | O=C(Cc1ccccc1)NCC(=O)N1CCN(C2c3ccc(Cl)cc3CCc3cccnc32)CC1 (stereo not shown) [Example 209] | < 4.30 | –

pIC50 [2, 6] | pIC50 [4] | SMILES | pIC50 ([3]; Homo sapiens, Fibroblast) | also measured
5.32 | < 4.30 | CC(C)(C)OC(=O)NCC(=O)N1CCN(C2c3ccc(Cl)cc3CCc3cccnc32)CC1 (stereo not shown) [Example 208] | < 4.30 | –
5.96 | 4.43 | O=C(Nc1ccccc1)N1CCN(C2c3ccc(Cl)cc3CCc3cccnc32)CC1 (stereo not shown) [Example 182] | < 4.30 | –
5.36 | 4.43 | O=C(Cc1cccnc1)N1CCC(=C2c3ccc(Cl)cc3CCc3ccc[n+]([O-])c32)CC1 [Example 229] | < 4.30 | –
5.22 | 5.20 | O=C(Cc1ccc(O)c(O)c1)N1CCC(C2c3ccc(Cl)cc3CCc3cccnc32)CC1 (stereo not shown) [Example 321] | < 4.30 | –
6.04 and 5.86 | – | O=C(Nc1cccnc1)N1CCC(C2c3ccc(Cl)cc3C=Cc3c(Cl)ccnc32)CC1 (stereo not shown) [Example 274] | – | pIC50 ([1]; Primates, COS): 5.10
– | 4.90 | CC(C)(C(=O)N1CCN(C2c3ccc(Cl)cc3CCc3cccnc32)CC1)c1ccncc1 (stereo not shown) [Example 425] | < 4.60 | pIC50 [2, 5]: 5.76
5.09 | 4.43 | O=C(Cc1cccc(O)c1)NCC(=O)N1CCN(C2c3ccc(Cl)cc3CCc3cccnc32)CC1 (stereo not shown) [Example 211] | < 4.30 | –
6.23 | – | CS(=O)(=O)OCC(C(=O)N1CCC(=C2c3ccc(Cl)cc3CCc3cccnc32)CC1)c1ccccc1 (stereo not shown) [Example 83, 8-chloro-11-[1-(2-methanesulfonyl-oxy-1-phenylethylcarbonyl)-4-piperidylidene]-6,11-dihydro-5H-benzo-[5,6]cyclohepta-[1,2-b]pyridine] | – | pIC50 ([1]; Primates, COS): 5.13
5.54 | 4.30 | O=C(Cc1ccccc1[N+](=O)[O-])N1CCC(=C2c3ccc(Cl)cc3CCc3cccnc32)CC1 [Example 126] | < 4.30 | –
– | – | O=C(Cc1cccnc1)N1CCN(C2c3ccc(Cl)cc3CCc3cccnc32)CC1 (stereo not shown) [Example 78] | – | pIC50 [2, 7]: 6.00 and 6.38; pIC50 ([2]; FPT IC50, enzyme inhibition): 5.66 and 6.28 and 6.13 and 6.12 and 6.01; pIC50 ([1]; Primates, COS): > 5.34
6.54 | – | CC(=O)SCC(C(=O)N1CCC(=C2c3ccc(Cl)cc3CCc3cccnc32)CC1)c1ccccc1 (stereo not shown) [Example 84] | – | pIC50 ([1]; Primates, COS): < 5.01
5.36 | 4.30 | O=C(c1ccc(Cl)nc1)N1CCC(=C2c3ccc(Cl)cc3CCc3cccnc32)CC1 [Example 98] | < 4.30 | –
5.37 | 4.60 | O=C(c1ccc([N+](=O)[O-])cc1)N1CCC(=C2c3ccc(Cl)cc3CCc3cccnc32)CC1 [Example 10] | < 4.30 | –
5.17 | 4.43 | O=C(CCc1ccccc1)NCC(=O)N1CCN(C2c3ccc(Cl)cc3CCc3cccnc32)CC1 (stereo not shown) [Example 217] | 4.30 | –
5.40 | 4.40 | C[S+]([O-])c1ccc(C(=O)N2CCC(=C3c4ccc(Cl)cc4CCc4cccnc43)CC2)cc1 (stereo not shown) [Example 94] | 4.10 | –
5.56 | < 4.30 | CC(S)C(=O)NCC(=O)N1CCN(C2c3ccc(Cl)cc3CCc3cccnc32)CC1 (stereo not shown) [Example 81] | < 4.30 | –
5.57 | < 4.30 | CN(C)c1ccc(CC(=O)N2CCC(=C3c4ccc(Cl)cc4CCc4cccnc43)CC2)cc1 [Example 297] | < 4.30 | –

SMILES | pIC50 [2, 6] | pIC50 [4] | pIC50 ([3]; Homo sapiens, Fibroblast) | also measured
O=C(N[C@@H](Cc1ccc(O)cc1)C(=O)N1CCC(=C2c3ccc(Cl)cc3CCc3cccnc32)CC1)OCc1ccccc1 [Example 46] | 5.92 | – | – | pIC50 [1]: < 5.10; pIC50 [3]: < 4.30
CN(C)c1ccc(CC(=O)N2CCN(C3c4ccc(Cl)cc4CCc4cccnc43)CC2)cc1 (stereo not shown) [Example 189] | – | 4.43 | < 4.30 | pIC50 [2, 7]: 5.61
O=C(Cc1cccnc1)N1CCN([C@H]2c3ccc(Cl)cc3CCc3cccnc32)CC1 [223 (5.97)] | – | 5.10 | < 4.30 | pIC50 [2, 7]: 6.72 and 6.14 and 6.21
Nc1cnc2c(c1)C=Cc1cc(Cl)ccc1C2C1CCN(C(=O)Cc2ccncc2)CC1 (stereo not shown) [Example 402-A] | – | 5.51 | < 4.60 | pIC50 ([2]; FPT IC50, enzyme inhibition): 6.35 and 6.25
O=C(Cc1ccc[n+]([O-])c1)N1CCN(C2c3ccc(Cl)cc3CCc3ccc[n+]([O-])c32)CC1 (stereo not shown) [185 (5.61)] | 5.42 | – | – | pIC50 ([1]; Primates, COS): < 4.70
O=C(Cc1cccnc1)N1CCN(C2c3ccc(Cl)cc3CCc3c(Cl)ccnc32)CC1 (stereo not shown) [Example 355] | – | 5.10 | < 4.60 | pIC50 [2, 7]: 6.06
O=C(Cc1ccc[n+]([O-])c1)N1CCN(C2c3ccc(Cl)cc3CCc3cc(Br)cnc32)CC1 (stereo not shown) [Example 425-K] | – | 5.20 | < 4.60 | pIC50 ([2]; FPT IC50, enzyme inhibition): 6.40 and 6.39
O=C(Cc1cccnc1)N1CCN(C2c3ccc(Cl)cc3CCc3ccc[n+]([O-])c32)CC1 (stereo not shown) [184 (5.60)] | – | 4.90 | < 4.30 | pIC50 [2, 7]: 6.04
O=C(Cc1cc[n+]([O-])cc1)N1CCN(C2c3ccc(Cl)cc3CCc3cccnc32)CC1 (stereo not shown) [Example 425-B] | – | 4.90 | < 4.60 | pIC50 [2, 5]: 6.13
O=C(Cc1ccc[n+]([O-])c1)N1CCN(C2c3ccc(Cl)cc3CCc3cccnc32)CC1 (stereo not shown) [Example 197] | – | 4.60 | < 4.30 | pIC50 [2, 7]: 5.93
